Results reported in the supplement of paper PMC10307832.

How the values were obtained:
Test in all cases: relative viability (nuclei count vs DMSO), 5 days (fraction); higher = more cells survive
Sulindac + Bortezomib = compound: CC1=C(CC(=O)O)c2cc(F)ccc2/C1=C\c1ccc([S+](C)[O-])cc1 [Sulindac] + CC(C)C[C@H](NC(=O)[C@H](Cc1ccccc1)NC(=O)c1cnccn1)B(O)O [Bortezomib] (partner 0.002 µM)
Method in brief: (§1)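 Each reported value is a median over duplicate plates. It expresses relative viability: treated-well nuclei count divided by vehicle-well nuclei count. Lung cancer cell lines in 1536-well plates were dosed by pin tool a day after seeding, alone with one drug or with a fixed anchor-drug dose plus five library-drug doses (not always all listed) in √10 steps, and nuclei were counted after 5 days.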

[1] = compound: CN[C@@H]1C[C@H]2O[C@@](C)([C@@H]1OC)n1c3ccccc3c3c4c(c5c6ccccc6n2c5c31)C(=O)NC4 [Staurosporine] + CC(C)C[C@H](NC(=O)[C@H](Cc1ccccc1)NC(=O)c1cnccn1)B(O)O [Bortezomib] (partner 0.002 µM)
Method in brief: as §1

[2] = compound: CN[C@@H]1C[C@H]2O[C@@](C)([C@@H]1OC)n1c3ccccc3c3c4c(c5c6ccccc6n2c5c31)C(=O)NC4 [Staurosporine] + C[C@@H](Oc1cc(-c2cnn(C3CCNCC3)c2)cnc1N)c1c(Cl)ccc(F)c1Cl [Crizotinib] (partner 1 µM)
Method in brief: as §1

[3] = compound: CN[C@@H]1C[C@H]2O[C@@](C)([C@@H]1OC)n1c3ccccc3c3c4c(c5c6ccccc6n2c5c31)C(=O)NC4 [Staurosporine] + Cc1nc(Nc2ncc(C(=O)Nc3c(C)cccc3Cl)s2)cc(N2CCN(CCO)CC2)n1 [Dasatinib] (partner 0.075 µM)
Method in brief: as §1

Cell Line | relative viability (Sulindac + Bortezomib; first compound 0.08 µM) | relative viability (Sulindac + Bortezomib; first compound 0.253 µM) | relative viability (Sulindac + Bortezomib; first compound 2.53 µM) | relative viability (Sulindac + Bortezomib; first compound 8 µM) | relative viability ([1]; first compound 0.005 µM) | relative viability ([1]; first compound 0.01581 µM) | relative viability ([1]; first compound 0.05 µM) | relative viability ([1]; first compound 0.1581 µM) | relative viability ([1]; first compound 0.5 µM) | relative viability ([2]; first compound 0.005 µM) | relative viability ([2]; first compound 0.01581 µM) | relative viability ([2]; first compound 0.05 µM) | relative viability ([2]; first compound 0.1581 µM) | relative viability ([2]; first compound 0.5 µM) | relative viability ([3]; first compound 0.005 µM) | relative viability ([3]; first compound 0.01581 µM) | relative viability ([3]; first compound 0.05 µM) | relative viability ([3]; first compound 0.1581 µM) | relative viability ([3]; first compound 0.5 µM) | relative viability (Sulindac + Bortezomib; first compound 0.8 µM)
PC-14 | 1.05 | 0.902 | 0.929 | 0.783 | 0.838 | 0.428 | 0.293 | 0.0723 | 0.065 | 0.683 | 0.714 | 0.141 | 0.0852 | 0.0777 | 0.0423 | 0.0358 | 0.0229 | 0.0364 | 0.0239 | 
HARA | 1.2 | 1.09 | 1.14 | 1.44 | 0.996 | 0.351 | 0.233 | 0.115 | 0.179 | 0.756 | 0.558 | 0.158 | 0.147 |  | 0.289 |  | 0.127 | 0.145 | 0.0757 | 
NCI-H23 | 0.991 | 1.26 | 1.25 | 1.27 | 0.975 | 0.215 | 0.259 | 0.155 | 0.107 | 0.296 | 0.234 | 0.193 | 0.176 | 0.125 | 0.833 |  | 0.259 | 0.13 | 0.154 | 0.58
LCLC-97TM1 | 0.861 | 0.946 | 0.788 | 0.806 | 0.164 | 0.158 | 0.219 | 0.151 | 0.0852 | 0.277 | 0.24 | 0.234 | 0.296 | 0.257 | 0.611 | 0.254 | 0.286 | 0.378 | 0.293 | 
LC-2-ad | 1.31 | 0.992 | 0.97 | 1.12 | 0.973 | 0.096 | 0.508 | 0.0851 | 0.0564 | 0.442 | 0.368 | 0.266 | 0.167 | 0.116 | 0.488 | 0.188 | 0.193 | 0.194 | 0.141 | 0.969
NCI-H1666 |  | 0.724 | 0.767 | 0.937 | 0.638 | 0.468 | 0.493 | 0.29 | 0.189 | 0.536 | 0.528 | 0.418 | 0.236 | 0.2 | 0.602 | 0.419 | 0.484 | 0.261 | 0.196 | 0.729
EKVX | 1 | 0.999 | 1.04 | 1.05 | 0.351 | 0.234 | 0.262 |  | 0.125 | 0.666 | 0.429 | 0.329 | 0.253 | 0.146 | 0.666 | 0.282 | 0.201 | 0.202 | 0.161 | 0.859
SW 1573 |  | 1 | 1.19 | 1.13 | 0.712 | 0.444 | 0.192 | 0.101 | 0.0911 | 0.678 | 0.583 | 0.186 | 0.134 | 0.119 | 0.129 | 0.116 | 0.0863 | 0.0538 | 0.0496 | 
HCC-827 | 1.01 | 1.13 | 1.06 | 1.11 | 0.942 | 0.874 | 0.915 | 0.564 | 0.582 | 0.927 | 0.803 | 0.583 | 0.575 | 0.442 | 0.391 | 0.423 | 0.372 | 0.319 | 0.305 | 0.93
NCI-H727 | 0.822 | 0.884 | 0.742 | 0.912 | 0.703 | 0.354 | 0.345 | 0.352 | 0.158 | 0.3 | 0.322 | 0.228 | 0.181 | 0.164 | 0.47 | 0.579 | 0.363 | 0.235 | 0.184 | 0.665
CAL-12T | 0.999 | 1.06 | 0.918 | 1.26 | 0.343 | 0.227 | 0.233 | 0.244 | 0.186 | 0.16 | 0.0981 | 0.0843 | 0.113 | 0.0906 | 0.14 | 0.0881 | 0.0772 | 0.107 | 0.0737 | 0.852
NCI-H522 |  |  |  |  |  |  |  |  |  |  |  |  |  |  | 1.08 |  | 0.743 | 0.497 | 0.527 | 
IA-LM | 0.811 | 0.91 | 0.977 | 0.89 | 0.188 |  | 0.238 | 0.131 | 0.07 | 0.253 | 0.073 | 0.319 | 0.148 | 0.0488 |  |  |  |  |  | 
EPLC-272H | 1.05 |  | 1.12 | 0.813 | 1.01 | 0.195 | 0.447 | 0.181 | 0.126 | 0.864 | 0.559 | 0.459 | 0.155 | 0.124 | 0.179 | 0.0602 | 0.0709 | 0.0723 | 0.103 | 0.603
A-427 | 0.899 | 0.976 | 0.965 | 1.17 | 1.02 | 0.87 | 0.367 | 0.131 | 0.133 | 0.841 | 0.582 | 0.236 | 0.126 | 0.122 | 0.5 | 0.206 | 0.183 | 0.0891 | 0.128 | 1.08
NCI-H661 | 0.726 | 0.769 | 0.852 | 0.885 | 0.716 | 0.453 | 0.341 | 0.275 | 0.228 | 1.03 | 0.9 | 0.81 | 0.501 | 0.415 | 0.67 | 0.349 | 0.381 | 0.347 | 0.123 | 0.688
NCI-H1993 | 1.11 | 1.1 | 0.945 | 1.29 |  | 0.44 | 0.463 | 0.483 | 0.315 | 0.861 | 0.78 | 0.527 | 0.487 | 0.298 | 0.646 | 0.454 | 0.54 | 0.488 | 0.509 | 1.03
NCI-H358 |  |  |  |  |  |  |  |  |  | 0.386 | 0.225 | 0.106 | 0.116 | 0.0764 | 0.373 | 0.072 | 0.178 | 0.0752 | 0.0597 | 
